Results published in patent US11541065B2, “Compositions and methods for treating brain injury” (UNM RAINFOREST INNOVATIONS, priority 2018, dated 2023).

Columns and labels:
Assay type in all cases: cell-based
[1] = test system: cPLA2; test: cPLA2 activity in rat neuronal lysates (enzymatic assay); settings: for effect on homocysteine-mediated increase in cPLA2 activity: rat neurons, L-homocysteine 50 μM four hours, with MK801 10 μM, NVP-AAM077 30 nM, Ro 25-6981 1 μM, PD98059 15 μM or SB203580 5 μM
Protocol: (§1) Neuron cultures were treated with or without L-homocysteine in the presence or absence of pharmacological inhibitors for the time period specified in each experiment. The medium was collected from each experimental plate and centrifuged at 1000 rpm for five minutes to remove cellular debris. Equal amounts (100 μl) of the supernatant from each sample were used to determine the amount of PGE2 using the PGE2 enzyme immunoassay kit according to the manufacturer's instructions. For measurement of cPLA2 activity, the neuronal cells from the above treated conditions were harvested in ice-cold Tris-buffered saline (pH7.4) containing sodium pyrophosphate as phosphatase inhibitor, sonicated three times with five-second bursts and two minutes on ice between intervals. The lysed cell suspensions were centrifuged at 10,000 rpm for 10 minutes and the supernatant removed. Equal amounts of protein from the supernatant (assessed using BCA protein estimation kit) were estimated for activity of cPLA2 using cPLA2 activity assay kit according to the manufacturer's protocol.
For measurement of cPLA2 activity and MCP-1 levels in cell lysates, neuronal lysates were prepared by harvesting neurons in ice-cold Tris-buffered saline (pH 7.4) containing phosphatase inhibitor, sonicated three times in five-second bursts and placed on ice (two minutes) between each burst of sonication. The lysed cell suspensions were centrifuged at 10,000 rpm (10 minutes) and the supernatant was collected in another tube. Equal amounts of protein from the supernatant were processed for cPLA2 activity assay according to the manufacturer's protocol. Equal protein from the lysates were also used to estimate MCP-1 levels using an MCP-1 ELISA kit.

[2] = test system: PGE2; test: PGE2 release from rat neuronal cultures (enzyme immunoassay / ELISA of culture media); settings: for effect on homocysteine-induced PGE2 release: rat neurons, L-homocysteine 50 μM four hours, with DL-AP5 200 μM, MK801 10 μM, NVP-AAM077 30 nM, Ro 25-6981 1 μM, PD98059 15 μM, SB203580 5 μM, Bengamide B 500 nM or CAY10404 100 nM
Protocol: as §1
For measurement of PGE2 levels and MCP-1 levels released from neurons, culture medium was collected from each experimental plate and centrifuged at 1000 rpm for five minutes to remove cellular debris. Equal volume (100 μl) of the supernatant from each sample was used to determine PGE2 level using the PGE2 ELISA kit according to the manufacturer's instructions.

[3] = test system: ERK MAPK; test: ERK MAPK phosphorylation in rat cortical neuron cultures (immunoblot)
Description: Primary cortical neuronal cultures were established from embryos obtained from pregnant Sprague Dawley female rats (16-17 day gestation) as previously described (Podder and Paul, 2009, J Neurochem 110:1095-1106; Poddar and Paul, 2013, J Neurochem 124: 558-570). Primary cortical neuronal cultures were also developed from pregnant wildtype or GluN2A-knockout mice (15-16 day gestation) using similar protocols. The cells were maintained in culture for 12-14 days prior to treatment with homocysteine. L-homocysteine (200 mM stock) was prepared by alkali hydrolysis of L-homocysteine thiolactone hydrochloride followed by neutralization with 2N HCL and maintained in 0.02 mM N-Tris(hydroxymethyl)methyl-2-aminoethanesulfonicd acid (TES) buffer pH 7.4 (Poddar et al., 2001, Circulation 103:2717-2723). For receptor stimulation neurons were treated with freshly prepared 50 μM of L-homocysteine in Hank's balanced salt solution (Podder and Paul, 2009, J Neurochem 110:1095-1106; Poddar and Paul, 2013, J Neurochem 124: 558-570) containing 50 μM of glycine (Lipton et al., 1997, Proc Natl Acad Sci USA 94:5923-5928). In a subset of culture plates, pharmacological inhibitors (NVP-AAM007) were added […] prior to homocysteine addition and maintained during homocysteine treatment. Cells were processed for immunoblotting or Hoechst DNA staining.
Equal protein from total cell lysates obtained from rat and mice neuronal cultures were resolved in 7.5% SDS-PAGE, and subjected to immunoblotting procedure as described earlier (Podder and Paul, 2009, J Neurochem 110:1095-1106). Blots were analyzed with antibodies as described in each experiment. All primary antibodies (anti-pERK, anti-ERK) and secondary-horse radish peroxidase conjugated antibody concentrations were used according to recommendations provided by the manufacturer. Signals from immune complexes in the blots were developed using West Pico supersignal chemiluminescence reagents and then captured on X-ray films. Densitometric analysis of the images was performed using the Image J software.
Embryos obtained from pregnant Sprague Dawley rats (16-17-day gestation) or wild type (WT) and GluN2A KO mice (15-16-day gestation) were used to establish primary cortical neuronal cultures as previously described (Poddar and Paul, 2009, J Neurochem 110:1095-1106; Poddar and Paul, 2013, J Neurochem 124:558-570; Poddar et al., 2017, J Neurochem 142:560-573). Neurons were grown on either (a) 35-mm culture dishes (MatTek Corp., Ashland, Mass.) coated overnight with poly-D-lysine (50 μg/ml) and laminin (10 μg/ml) for Ca^2+ imaging studies, (b) poly-D-lysine-coated 60 mm dishes (Corning BIOCOAT, Corning Inc., Corning, N.Y.) for biochemical studies, or (c) poly-D-lysine-coated 4-well culture slides (Corning BIOCOAT, Corning Inc., Corning, N.Y.) for cell death assay. Neurons were maintained in culture for 12-13 days before experiment. The cells were treated with freshly prepared L-homocysteine (50 μM) in Hank's balanced salt solution containing 50 μM of glycine (Lipton et al., 1997, Proceedings of the National Academy of Sciences of the United States of America 94:5923-5928; Poddar and Paul, 2009, J Neurochem 110:1095-1106; Poddar and Paul, 2013, J Neurochem 124:558-570; Poddar et al., 2017, J Neurochem 142:560-573) for the specified time periods. In a parallel series of experiments, cells were treated with glutamate (50 μM) for the specified time periods. Cells were then processed for live cell imaging, immunoblotting or cell death assay. In some experiments EGTA, DL-AP5, NVP-AAM077, Ro 25-6981 or PD98059 was added 15 minutes prior to L-homocysteine or glutamate treatment.
Rat and mice neuron cultures were harvested in SDS sample buffer (Laemmli, 1970, Nature 227:680-685). […]

[4] = rat cortical neurons, L-homocysteine 50 μM four hours, in presence of NVP-AAM077 (30 nM) or Ro 256981 (1 μM)

Row | Compound | cPLA2 activity ([1]; primary cortical neurons, L-homocysteine 50 μM, 0-6 hours, alone) | PGE2 levels released into the medium ([2]; cortical neurons, L-homocysteine 50 μM, time course, alone) | ERK MAPK phosphorylation ([3]; rat cortical neurons, L-homocysteine 50 μM, four hours, alone) | effect on homocysteine-mediated increase in cPLA2 activity [1] | effect on homocysteine-induced PGE2 release [2] | effect on homocysteine-induced ERK MAPK phosphorylation [3, 4] | effect on homocysteine-induced ERK MAPK phosphorylation ([3]; rat neurons, L-homocysteine 50 μM for 30 minutes or 60 minutes, with DL-AP5 200 μM or NVP-AAM077 30 nM) | effect on glutamate-induced transient increase in ERK MAPK phosphorylation ([3]; rat neurons, glutamate 50 μM five min, with DL-AP5 200 μM or NVP-AAM077 30 nM)
1 | N[C@@H](CCS)C(=O)O [L-homocysteine] | significantly increases cPLA2 activity with time | significant increase in PGE2 levels within two hours | significant increase in ERK MAPK phosphorylation | – | – | – | – | –
2 | C[C@@H](CN1CCC(Cc2ccccc2)CC1)[C@@H](O)c1ccc(O)cc1 [Ro 25-6981] | – | – | – | fails to attenuate homocysteine-mediated increase in cPLA2 activity | fails to alter homocysteine-induced increase in PGE2 level | has no effect | – | –
3 | C[C@H](NC(c1cccc2[nH]c(=O)c(=O)[nH]c12)P(=O)(O)O)c1ccc(Br)cc1 (stereo partly drawn) [NVP-AAM077, ({[(1S)-1-(4-bromophenyl)ethyl]amino}-(2,3-dioxo-1,4-dihydroquinoxalin-5-yl)methyl)phosphonic acid] | – | – | – | inhibits homocysteine-mediated increase in cPLA2 activity | significantly reduced | blocks homocysteine-induced ERK MAPK phosphorylation | attenuates homocysteine-induced ERK MAPK phosphorylation | fails to ameliorate
